From ChEMBL document CHEMBL1201862, “PubChem BioAssay data set” (2004)
Active and inactive are the calls of the source.

What was measured:
[1] = molecular target: T1, Calpain-2 catalytic subunit (Sus scrofa, UniProt P43367); test: pig calpain II inhibitor potency, dose response, biochemical, fluorogenic peptide substrate (AID 1420); assay type: functional
T1 sequence (P43367 whole entry): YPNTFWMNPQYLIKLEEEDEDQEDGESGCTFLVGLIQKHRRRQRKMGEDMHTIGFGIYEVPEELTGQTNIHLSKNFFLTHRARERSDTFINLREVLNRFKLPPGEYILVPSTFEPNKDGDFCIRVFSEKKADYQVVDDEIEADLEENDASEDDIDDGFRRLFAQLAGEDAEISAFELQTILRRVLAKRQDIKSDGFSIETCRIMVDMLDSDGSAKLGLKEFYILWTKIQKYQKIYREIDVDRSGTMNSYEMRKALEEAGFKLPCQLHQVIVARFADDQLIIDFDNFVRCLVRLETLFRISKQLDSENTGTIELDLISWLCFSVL

cells [2] = assay type: functional, cell-based
[3] = molecular target: T2, Nuclear receptor subfamily 0 group B member 1 (Homo sapiens, UniProt P51843); assay type: functional, cell-based;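 note: HEK293T cells transfected with SF-1 and DAX-1 plus StAR promoter luciferase reporter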
T2 sequence (P51843 whole entry): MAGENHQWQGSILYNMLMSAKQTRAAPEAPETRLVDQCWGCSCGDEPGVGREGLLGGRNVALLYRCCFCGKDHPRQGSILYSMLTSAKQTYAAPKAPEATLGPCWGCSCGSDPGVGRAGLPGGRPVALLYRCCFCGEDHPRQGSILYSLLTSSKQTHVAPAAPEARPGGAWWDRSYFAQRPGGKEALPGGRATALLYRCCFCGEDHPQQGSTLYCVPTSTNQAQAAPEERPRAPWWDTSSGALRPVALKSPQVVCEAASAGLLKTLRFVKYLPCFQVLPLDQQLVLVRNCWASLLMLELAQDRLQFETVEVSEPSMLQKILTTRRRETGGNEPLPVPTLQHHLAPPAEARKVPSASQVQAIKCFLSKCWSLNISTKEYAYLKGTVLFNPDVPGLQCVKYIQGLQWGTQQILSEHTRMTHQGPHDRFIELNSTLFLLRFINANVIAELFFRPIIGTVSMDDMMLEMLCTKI

[4] = molecular target: Glyceraldehyde-3-phosphate dehydrogenase (Homo sapiens, UniProt P04406)
Cytochrome P450 2D6 = Cytochrome P450 2D6 (Homo sapiens, UniProt P10635);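 note: CYP2D6 member of a cytochrome P450 panel assay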
Cytochrome P450 3A4 = Cytochrome P450 3A4 (Homo sapiens, UniProt P08684);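 note: CYP3A4 tested as one member of a cytochrome P450 panel screen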
[5] = HEp-2 cell cytotoxicity, dose response, cytotoxicity control for RSV inhibitor project, HTS (AID 2410); assay type: functional; details: human respiratory syncytial virus
Cytochrome P450 1A2 = molecular target: T3, Cytochrome P450 1A2 (Homo sapiens, UniProt P05177);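 note: PubChem cytochrome P450 panel assay, CYP1A2 panel member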
T3 sequence (P05177 whole entry): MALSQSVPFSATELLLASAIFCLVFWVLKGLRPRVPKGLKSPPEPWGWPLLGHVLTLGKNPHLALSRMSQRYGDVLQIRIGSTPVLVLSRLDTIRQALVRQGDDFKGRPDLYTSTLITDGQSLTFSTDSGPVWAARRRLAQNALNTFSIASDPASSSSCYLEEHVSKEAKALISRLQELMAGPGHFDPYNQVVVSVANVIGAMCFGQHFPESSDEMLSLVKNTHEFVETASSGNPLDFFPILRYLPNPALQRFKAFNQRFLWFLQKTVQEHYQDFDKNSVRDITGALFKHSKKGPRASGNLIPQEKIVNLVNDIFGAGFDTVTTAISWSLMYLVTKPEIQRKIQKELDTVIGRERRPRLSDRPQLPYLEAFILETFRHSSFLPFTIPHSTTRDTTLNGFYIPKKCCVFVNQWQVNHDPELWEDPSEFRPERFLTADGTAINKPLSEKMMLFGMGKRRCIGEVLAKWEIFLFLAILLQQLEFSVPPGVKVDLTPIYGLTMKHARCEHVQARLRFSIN

[6] = molecular target: T4, High affinity choline transporter 1 (Homo sapiens, UniProt Q9GZV3); test: CHT inhibitors, dose response, cell-based, 5-point CRC, membrane potential dye (AID 504840); assay type: functional
T4 sequence (Q9GZV3 whole entry): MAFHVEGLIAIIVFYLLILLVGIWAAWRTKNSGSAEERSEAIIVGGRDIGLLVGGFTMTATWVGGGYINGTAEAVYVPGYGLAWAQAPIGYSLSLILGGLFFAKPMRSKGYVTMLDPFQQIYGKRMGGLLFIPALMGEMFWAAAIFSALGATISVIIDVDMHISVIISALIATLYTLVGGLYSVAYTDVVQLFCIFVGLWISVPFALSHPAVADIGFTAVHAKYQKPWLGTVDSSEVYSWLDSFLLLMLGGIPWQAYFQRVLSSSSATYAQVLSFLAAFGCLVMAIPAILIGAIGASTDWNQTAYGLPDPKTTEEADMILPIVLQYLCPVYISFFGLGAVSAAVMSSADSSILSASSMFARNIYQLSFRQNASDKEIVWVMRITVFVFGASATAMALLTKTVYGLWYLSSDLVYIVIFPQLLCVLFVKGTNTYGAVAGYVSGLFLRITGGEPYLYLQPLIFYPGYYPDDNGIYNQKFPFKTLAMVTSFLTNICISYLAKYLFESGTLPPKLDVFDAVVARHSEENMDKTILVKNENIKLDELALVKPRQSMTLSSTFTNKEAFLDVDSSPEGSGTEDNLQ

cells [7] = assay type: functional
Cytochrome P450 2C19 = Cytochrome P450 2C19 (Homo sapiens, UniProt P33261); test: Cytochrome panel assay with activity outcomes. Panel member name: p450-cyp2c19 Compounds with AC50 equal or less than 10 uM are considered active; assay type: functional; details: read-out: AC50
BJ [8] = test: cytotoxicity toward BJ-TERT fibroblasts, dose response, cell-based, RAS-independent, luminescence (AID 1933); assay type: functional; details: Homo sapiens
BJ [9] = test: cells; assay type: functional, cell-based; details: Homo sapiens
BJ [10] = test: cytotoxicity toward BJ-TERT-LT-ST fibroblasts, dose response, cell-based, RAS-independent, luminescence (AID 1935); assay type: functional; details: Homo sapiens;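 note: BJ fibroblasts immortalized with TERT plus LT and ST oncogenes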
[11] = cytotoxicity toward DRD oncogenic fibroblasts, dose response, cell-based, non-viral oncogenic, luminescence (AID 1934); assay type: functional; details: Homo sapiens
[12] = cytotoxicity in HEK-293T cells, dose response, cytotoxicity control for TCR NF-kB inhibitor project, luminescence, T-cell screen hits (AID 489026); assay type: functional, cell-based;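 note: cells exposed to compound about 14 hours before the viability readout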
P388/ADR = test: cells; assay type: functional; details: Mus musculus
SN12K1 = test: cells; assay type: functional; details: Homo sapiens
P388 = test: cells; assay type: functional; details: Mus musculus

Chain of Cytochrome P450 2D6 (P10635 whole entry): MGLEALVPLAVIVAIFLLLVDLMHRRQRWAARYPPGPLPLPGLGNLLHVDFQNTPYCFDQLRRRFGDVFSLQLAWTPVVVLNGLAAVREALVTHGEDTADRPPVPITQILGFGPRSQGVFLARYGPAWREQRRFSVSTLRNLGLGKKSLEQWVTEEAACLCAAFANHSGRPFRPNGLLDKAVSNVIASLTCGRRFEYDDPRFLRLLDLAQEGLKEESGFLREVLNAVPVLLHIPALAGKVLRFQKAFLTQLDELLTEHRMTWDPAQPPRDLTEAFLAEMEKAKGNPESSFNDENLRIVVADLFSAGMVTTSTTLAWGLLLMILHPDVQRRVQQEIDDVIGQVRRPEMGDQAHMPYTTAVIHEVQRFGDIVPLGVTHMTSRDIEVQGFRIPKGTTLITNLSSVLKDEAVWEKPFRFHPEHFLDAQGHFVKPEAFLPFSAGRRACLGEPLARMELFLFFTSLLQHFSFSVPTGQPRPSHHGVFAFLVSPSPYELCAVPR
Chain of Cytochrome P450 3A4 (P08684 whole entry): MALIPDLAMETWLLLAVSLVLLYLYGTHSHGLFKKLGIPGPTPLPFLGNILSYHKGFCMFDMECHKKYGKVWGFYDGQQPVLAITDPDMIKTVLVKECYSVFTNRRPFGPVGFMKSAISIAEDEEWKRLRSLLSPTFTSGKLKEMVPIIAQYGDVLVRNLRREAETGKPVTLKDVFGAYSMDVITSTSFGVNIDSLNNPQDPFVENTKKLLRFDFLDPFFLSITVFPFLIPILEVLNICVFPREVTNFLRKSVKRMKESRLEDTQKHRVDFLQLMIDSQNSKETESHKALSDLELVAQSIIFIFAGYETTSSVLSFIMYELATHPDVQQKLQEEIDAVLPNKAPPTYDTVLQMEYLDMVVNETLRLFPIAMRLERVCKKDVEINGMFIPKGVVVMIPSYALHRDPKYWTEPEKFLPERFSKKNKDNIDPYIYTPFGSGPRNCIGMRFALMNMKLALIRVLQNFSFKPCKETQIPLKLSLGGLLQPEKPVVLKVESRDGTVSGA
Chain of Glyceraldehyde-3-phosphate dehydrogenase (P04406 whole entry): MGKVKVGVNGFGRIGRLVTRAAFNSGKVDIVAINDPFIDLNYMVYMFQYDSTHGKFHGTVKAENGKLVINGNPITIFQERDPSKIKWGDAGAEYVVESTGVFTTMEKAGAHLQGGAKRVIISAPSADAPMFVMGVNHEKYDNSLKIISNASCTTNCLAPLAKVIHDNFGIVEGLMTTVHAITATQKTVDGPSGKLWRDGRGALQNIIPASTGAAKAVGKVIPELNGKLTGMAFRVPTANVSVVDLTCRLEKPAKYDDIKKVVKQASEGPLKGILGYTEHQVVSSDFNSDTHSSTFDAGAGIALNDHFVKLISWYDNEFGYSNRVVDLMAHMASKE
Chain of Cytochrome P450 2C19 (P33261 whole entry): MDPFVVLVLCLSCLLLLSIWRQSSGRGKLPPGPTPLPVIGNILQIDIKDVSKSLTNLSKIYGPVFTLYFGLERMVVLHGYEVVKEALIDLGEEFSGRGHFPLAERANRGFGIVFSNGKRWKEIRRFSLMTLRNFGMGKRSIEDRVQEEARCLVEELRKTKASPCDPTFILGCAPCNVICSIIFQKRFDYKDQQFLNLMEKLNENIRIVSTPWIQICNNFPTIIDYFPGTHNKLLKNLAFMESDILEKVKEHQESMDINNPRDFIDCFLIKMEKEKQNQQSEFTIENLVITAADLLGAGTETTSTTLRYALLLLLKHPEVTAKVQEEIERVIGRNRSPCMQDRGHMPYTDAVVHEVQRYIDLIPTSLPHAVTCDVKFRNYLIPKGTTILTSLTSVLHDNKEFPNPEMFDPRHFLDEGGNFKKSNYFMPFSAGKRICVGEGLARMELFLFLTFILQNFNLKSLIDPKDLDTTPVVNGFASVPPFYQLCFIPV

Cc1nc2ccccc2[nH]c(=O)c1=NNc1ccc([N+](=O)[O-])cc1
IC50 [1]: 12.3 µM (not active)

CN1CCN(C(=O)c2ccc3c(Cl)c4c(nc3c2)CCCC4)CC1
IC50 (cells [2]): > 67.6 µM (inactive)
IC50 [3]: > 67.6 µM (inactive)

CC(C)Cn1c(-c2ccc(Br)cc2)cnc1S
IC50 [1]: 12.1 µM (active)

COc1cc(OC)c2c(-c3cccc(-c4ccc(NC(C)=O)cc4)c3)cc(=O)oc2c1
IC50 (cells [2]): > 67.5 µM (inactive)
IC50 [3]: > 67.5 µM (inactive)

CN(C)C1=C(Cl)C(=O)N(c2ccc(Cl)nc2)C1=O
IC50 [4]: > 50 µM (inconclusive)

CCOc1ccc(NC(=NCc2ccc3c(c2)OCO3)SC2CC(=O)N(c3ccc(OCC)cc3)C2=O)cc1 (stereo not given)
IC50 [1]: > 50 µM (not active)

FC(F)(F)c1ccccc1-c1cc(NCc2ccccc2)ncn1
AC50 (Cytochrome P450 2D6): 39.8 µM (inconclusive)
AC50 (Cytochrome P450 3A4): inconclusive

O=C(c1ccc2c(c1)OCCO2)C1CCN(S(=O)(=O)c2ccccc2F)CC1
CC50 [5]: > 50 µM (active)
AC50 (Cytochrome P450 2D6): 0.0316 µM (inconclusive)
AC50 (Cytochrome P450 1A2): 5.01 µM (inconclusive)
AC50 (Cytochrome P450 3A4): inconclusive

CN1CCCC(CC2Oc3ccccc3Sc3ccccc32)C1 (stereo not given)
IC50 [6]: 15.8 µM (active)

Cc1ccc(-c2nnc(C)c(N3CCCC3)n2)cc1
IC50 (cells [7]): 13.2 µM (active)

CCCc1cc2c(=O)c(-c3ccccn3)c(C)oc2cc1O
IC50 [6]: 12.3 µM (active)

Cn1c(-c2ccccc2O)cc2ccccc21
IC50 [6]: 13.2 µM (active)

O=C(c1cccc(F)c1)N1CCC2(CC1)CCN(c1ncccn1)CC2
AC50 (Cytochrome P450 2C19): 39.8 µM (inconclusive)
AC50 (Cytochrome P450 2D6): 15.8 µM (inconclusive)
AC50 (Cytochrome P450 1A2): 10 µM (inconclusive)
AC50 (Cytochrome P450 3A4): inconclusive

Cc1cc(NC(=O)NC(=O)c2ccccc2F)no1
IC50 (cells [2]): > 67.5 µM (inactive)
IC50 [3]: > 67.5 µM (inactive)

Cc1ccc2c(c1)C=CC(C#N)N2C(=O)c1ccccc1 (stereo not given)
EC50 (BJ [8]): 3.69 µM (active)
EC50 (BJ [9]): > 150 µM (not active)
EC50 (BJ [10]): 25.5 µM (inconclusive)
EC50 [11]: 1.54 µM (active)
IC50 [12]: > 80 µM (inactive)

O=C1C(Cl)=C(N2CCN(c3ccccc3)CC2)C(=O)N1c1ccc(Cl)nc1
IC50 [4]: > 50 µM (inconclusive)

Cc1c2c(cc3c1[nH]c1ccccc13)C=NCC2
GI50 (P388/ADR): 8 µM (inactive)
GI50 (SN12K1): 6.98 µM (inactive)
GI50 (P388): 6.93 µM (inactive)

C=C(OC1C(C)=C2C(C1OC(=O)CCCCCCC)C(C)(OC(C)=O)CC(OC(=O)CCC)C1(O)C2OC(=O)C1(C)O)/C(C)=C/C (stereo not given)
GI50 (P388/ADR): 0.0251 µM (active)
GI50 (SN12K1): 0.0125 µM (active)
GI50 (P388): 0.0125 µM (active)

CC(=O)NC1=C[C@@H]([C@H]2COC(C)(C)O2)OC1=O
GI50 (P388/ADR): > 100 µM (inactive)
GI50 (SN12K1): > 100 µM (inactive)
GI50 (P388): > 100 µM (inactive)

CCCCOc1ccc(OCCCCCCCCCC[N+](C)(C)C)cc1
GI50 (P388/ADR): 7.05 µM (inactive)
GI50 (SN12K1): 1.61 µM (inactive)
GI50 (P388): 0.94 µM (active)

N=C(N)Nc1ncccc1[N+](=O)[O-]
GI50 (P388/ADR): 32.9 µM (inactive)
GI50 (SN12K1): > 100 µM (inactive)
GI50 (P388): 40.2 µM (inactive)

CSc1nc(NC2OCC(O)C(O)C2O)c(N)c(=O)[nH]1 (stereo not given)
GI50 (P388/ADR): > 100 µM (inactive)
GI50 (SN12K1): > 100 µM (inactive)
GI50 (P388): > 100 µM (inactive)

Oc1ccc(Br)cc1/C=N/c1ccc(Cl)cc1
IC50 [1]: 43.8 µM (not active)

Nc1ccn([C@@H]2C=C(CO)[C@@H](O)[C@H]2O)c(=O)n1
GI50 (P388/ADR): 0.0619 µM (active)
GI50 (SN12K1): 0.104 µM (active)
GI50 (P388): 0.0752 µM (active)

Nc1[nH]cnc2ncnc1-2 [ADENINE]
GI50 (P388/ADR): 79.3 µM (inactive)
GI50 (SN12K1): 213 µM (inactive)
GI50 (P388): 64.9 µM (inactive)
